In US9447042B2, “Endoparasite control agent” (THE UNIVERSITY OF TOKYO, priority 2011, dated 2016):
Where two headings read alike, the source gives them in different places.

What was measured:
[1] = target: T1, Porcine succinate-ubiquinone reductase (mitochondrial complex II) (Sus scrofa, UniProt A5GZW8+D0VWV4+Q007T0); experiment: In vitro inhibitory activity on porcine succinate-ubiquinone reductase (mitochondrial complex II); format: biochemical, pig
T1 construct: from tissue; host or cells: mitochondria from porcine heart muscle
T1 sequence (Q007T0 29-280): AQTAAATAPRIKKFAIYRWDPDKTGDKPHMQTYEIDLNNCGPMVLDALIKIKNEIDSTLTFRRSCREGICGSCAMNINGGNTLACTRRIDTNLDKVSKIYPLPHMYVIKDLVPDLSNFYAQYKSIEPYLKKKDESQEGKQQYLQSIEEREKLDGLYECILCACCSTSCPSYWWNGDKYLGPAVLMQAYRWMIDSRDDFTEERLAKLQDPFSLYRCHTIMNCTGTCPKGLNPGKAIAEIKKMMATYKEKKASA
T1 sequence (D0VWV4 30-169): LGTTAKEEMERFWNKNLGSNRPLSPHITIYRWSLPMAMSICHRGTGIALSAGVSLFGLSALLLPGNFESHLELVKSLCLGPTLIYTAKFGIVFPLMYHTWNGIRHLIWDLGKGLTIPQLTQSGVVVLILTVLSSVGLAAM
T1 sequence (A5GZW8 57-159 limits assumed): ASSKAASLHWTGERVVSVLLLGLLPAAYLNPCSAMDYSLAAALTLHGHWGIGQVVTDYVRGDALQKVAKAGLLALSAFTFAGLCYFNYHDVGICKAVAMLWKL
T1 sequence (Q0QF01 43-664 partner): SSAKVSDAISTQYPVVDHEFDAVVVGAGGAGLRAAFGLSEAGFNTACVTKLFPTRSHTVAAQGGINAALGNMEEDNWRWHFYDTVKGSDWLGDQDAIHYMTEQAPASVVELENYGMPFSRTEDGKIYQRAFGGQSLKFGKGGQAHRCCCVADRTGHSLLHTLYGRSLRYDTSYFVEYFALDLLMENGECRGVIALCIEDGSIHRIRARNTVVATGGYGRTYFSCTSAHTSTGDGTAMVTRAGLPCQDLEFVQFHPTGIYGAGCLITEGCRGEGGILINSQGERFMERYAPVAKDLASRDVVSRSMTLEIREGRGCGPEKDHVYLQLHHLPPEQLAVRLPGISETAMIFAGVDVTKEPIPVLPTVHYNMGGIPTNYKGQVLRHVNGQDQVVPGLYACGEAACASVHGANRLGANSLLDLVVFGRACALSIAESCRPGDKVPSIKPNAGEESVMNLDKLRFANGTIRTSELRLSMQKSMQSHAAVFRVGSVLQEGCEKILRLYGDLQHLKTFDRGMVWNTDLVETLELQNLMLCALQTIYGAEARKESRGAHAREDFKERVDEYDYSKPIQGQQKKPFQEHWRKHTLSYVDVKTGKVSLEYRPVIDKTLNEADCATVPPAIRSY
Procedure: In Vitro Measurement of Inhibitory Activity on Porcine Succinate-Ubiquinone Reductase (Mitochondrial Complex II)
(§1) To a solution containing 50 mM potassium phosphate (pH 7.4) and 0.1% (w/v) sucrose monolaurate, an electron acceptor ubiquinone-2 (UQ2) was added at a final concentration of 60 μM, and the mixture was allowed to stand at 25° C. for 20 minutes. To this, potassium cyanide (final concentration: 2 mM) and mitochondria prepared from porcine heart muscle were added, and thorough mixing was done. To aliquots of the mixture, an inhibitor to be tested was added at various concentrations, and the mixtures were allowed to stand at 25° C. for 3 minutes. The enzymatic reaction was initiated by addition of potassium succinate (final concentration: 10 mM).
(§2) In the table, “-” indicates “not tested,” and “Ascaris suum IC50 value (A)” indicates an IC50 value (50% inhibitory concentration) for inhibition of succinate-ubiquinone reductase (mitochondrial complex II) of Ascaris suum. From the extent of inhibition of this respiratory enzyme, the parasite control activity can be estimated. “Porcine mitochondria IC50 value (B)” indicates an IC50 value for inhibition of succinate-ubiquinone reductase (mitochondrial complex II) of the host pig. From the extent of inhibition of this respiratory enzyme, the influence on the host can be estimated. A greater selectivity index B/A indicates a higher safety for the host.

[2] = target: T2, Ascaris suum succinate-ubiquinone reductase (mitochondrial complex II) (Ascaris suum, UniProt O44074+P92506+P92507); experiment: In vitro inhibitory activity on Ascaris suum succinate-ubiquinone reductase (mitochondrial complex II); format: biochemical; conditions: for Selectivity B/A: porcine IC50 (B) / Ascaris suum IC50 (A)
T2 construct: from tissue; host or cells: mitochondria from adult Ascaris suum muscle
T2 sequence (O44074 22-282): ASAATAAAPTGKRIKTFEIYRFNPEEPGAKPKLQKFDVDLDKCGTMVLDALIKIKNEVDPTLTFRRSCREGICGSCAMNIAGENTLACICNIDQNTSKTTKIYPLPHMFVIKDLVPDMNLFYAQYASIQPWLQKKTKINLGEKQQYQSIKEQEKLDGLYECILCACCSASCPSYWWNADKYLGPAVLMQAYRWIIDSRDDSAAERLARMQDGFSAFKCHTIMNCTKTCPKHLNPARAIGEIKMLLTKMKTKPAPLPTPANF
T2 sequence (P92506 32-188): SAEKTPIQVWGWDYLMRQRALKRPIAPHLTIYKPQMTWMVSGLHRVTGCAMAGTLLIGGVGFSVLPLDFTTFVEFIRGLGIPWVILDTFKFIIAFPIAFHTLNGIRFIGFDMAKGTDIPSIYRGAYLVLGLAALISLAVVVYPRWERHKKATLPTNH
T2 sequence (P92507 26-156): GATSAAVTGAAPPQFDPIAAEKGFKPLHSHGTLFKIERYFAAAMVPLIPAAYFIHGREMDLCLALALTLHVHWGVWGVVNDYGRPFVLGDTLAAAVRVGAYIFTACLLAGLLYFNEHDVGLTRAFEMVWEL
T2 sequence (Q33862 19-645 partner): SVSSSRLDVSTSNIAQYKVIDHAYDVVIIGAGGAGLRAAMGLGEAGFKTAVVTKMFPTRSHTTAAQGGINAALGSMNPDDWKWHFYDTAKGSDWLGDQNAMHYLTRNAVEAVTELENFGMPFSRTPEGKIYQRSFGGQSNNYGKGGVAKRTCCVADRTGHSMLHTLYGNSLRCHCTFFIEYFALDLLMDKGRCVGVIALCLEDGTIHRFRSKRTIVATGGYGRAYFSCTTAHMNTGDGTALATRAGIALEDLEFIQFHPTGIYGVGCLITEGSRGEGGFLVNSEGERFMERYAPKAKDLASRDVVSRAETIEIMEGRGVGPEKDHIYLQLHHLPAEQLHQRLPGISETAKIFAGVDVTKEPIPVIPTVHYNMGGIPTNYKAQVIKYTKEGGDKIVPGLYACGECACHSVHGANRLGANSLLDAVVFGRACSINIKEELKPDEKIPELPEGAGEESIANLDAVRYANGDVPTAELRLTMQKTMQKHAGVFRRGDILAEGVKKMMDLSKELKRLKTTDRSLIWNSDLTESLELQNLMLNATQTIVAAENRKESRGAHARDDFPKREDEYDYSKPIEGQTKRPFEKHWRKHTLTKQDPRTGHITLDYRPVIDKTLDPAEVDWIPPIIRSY
Procedure: In Vitro Measurement of Inhibitory Activity on Ascaris suum Succinate-Ubiquinone Reductase (Mitochondrial Complex II)
as §1, with “adult Ascaris suum” for “porcine heart”
as §2

Haemonchus contortus = experiment: Larval migration inhibition assay (LMIA) on Haemonchus contortus; format: in vivo; conditions: third-stage larvae
Procedure: In Vivo Activity on Haemonchus contortus
The test was conducted according to the larval migration inhibition assay (LMIA: Demeler et al., 2010). A larval suspension was prepared so as to contain 100 to 120 third-stage larvae of Haemonchus contortus per 20 μL, and then 20 μL of the larval suspension was added to each well on a breeding plate to which compound solutions adjusted to predetermined concentrations were previously added at […] each. The breeding plate was maintained for breeding at 28° C. for 24 hours. Meanwhile, to a plate for larval migration observation, 400 μL of a 1.5% agar solution was added and left to stand until coagulation. Then, the larvae were allowed to migrate through a sieve from the breeding plate to the plate for larval migration observation, and the plates were maintained for breeding at 28° C. for another 24 hours. The larvae which had migrated, and the larvae which had not migrated were counted, the percentage of migration inhibition was calculated, and the activity was graded based on the following criterion. In the table, “-” indicates “not tested.”
Percentage of Migration Inhibition

[3] = at 90 μM, porcine heart muscle mitochondria
[4] = at 9 μM, porcine heart muscle mitochondria
[5] = mitochondria from porcine heart muscle, read-out: Porcine mitochondria IC50 value (B)
[6] = mitochondria from adult Ascaris suum muscle, read-out: Ascaris suum IC50 value (A)

SMILES	Porcine mitochondria inhibition at 90 μM [1, 3]	IC50 [2] [nM]	Selectivity B/A [2]	IC50 [2, 6] [nM]	also measured
O=C(NCCc1ccc(Cl)cc1)c1ccccc1C(F)(F)F [Compound 1-3]	no inhibition at 90 μM	1.21	>27000		
O=C(NCCc1ccc(Cl)cc1Cl)c1ccccc1C(F)(F)F [Compound 1-16]	no inhibition at 90 μM	3.34	>74400		Percentage of migration inhibition (grade) (Haemonchus contortus; 0.1 ppm): C (10 to 39%); Percentage of migration inhibition (grade) (Haemonchus contortus; 1 ppm): C (10 to 39%); Percentage of migration inhibition (grade) (Haemonchus contortus; 10 ppm): C (10 to 39%); Percentage of migration inhibition (grade) (Haemonchus contortus; 100 ppm): B (40 to 69%)
Cc1ccc(CCNC(=O)c2ccccc2C(F)(F)F)c(C)c1 [Compound 1-27]	no inhibition at 90 μM	1.69	>53300		
CC(Cc1ccc(Cl)cc1Cl)NC(=O)c1ccccc1C(F)(F)F (stereo not drawn) [Compound 1-32]		2.15	>4190		Percentage of migration inhibition (grade) (Haemonchus contortus; 0.1 ppm): C (10 to 39%); Percentage of migration inhibition (grade) (Haemonchus contortus; 1 ppm): C (10 to 39%); Percentage of migration inhibition (grade) (Haemonchus contortus; 10 ppm): B (40 to 69%); Porcine mitochondria inhibition at 9 μM [1, 4]: no inhibition at 9 μM
CC(Cc1ccc(F)cc1F)NC(=O)c1ccccc1C(F)(F)F (stereo not drawn) [Compound 1-64]		9	>9150		Porcine mitochondria inhibition at 9 μM [1, 4]: no inhibition at 9 μM
CC(Cc1ccc(Cl)c(Cl)c1)NC(=O)c1ccccc1C(F)(F)F (stereo not drawn) [Compound 1-81]		4.8	>18800		inhibition at 90 µM [1, 3]: 10%
CC(C)(Cc1ccc(Cl)c(Cl)c1)NC(=O)c1ccccc1C(F)(F)F [Compound 1-88]		12			
O=C(NCCc1c(Cl)cc(C(F)(F)F)cc1Cl)c1ccccc1C(F)(F)F [Compound 1-110]		4.07	>2460		Porcine mitochondria inhibition at 10 μM ([1]; at 10 μM, porcine heart muscle mitochondria): no inhibition at 10 μM
O=C(NCCc1ccccc1)c1ccccc1C(F)(F)F [Compound 1-111]	no inhibition at 90 μM	13.1	>6870		
CC(C)(CNC(=O)c1ccccc1C(F)(F)F)c1ccc(Cl)cc1Cl [Compound 1-112]	no inhibition at 90 μM	1.5	>60000		
CC(C)(C)c1ccc(CNC(=O)c2ccccc2C(F)(F)F)cc1 [Compound 2-1]			20295	5.47	Percentage of migration inhibition (grade) (Haemonchus contortus; 0.1 ppm): C (10 to 39%); Percentage of migration inhibition (grade) (Haemonchus contortus; 1 ppm): B (40 to 69%); IC50 [1, 5]: 111000 nM
CC(C)(NC(=O)c1ccccc1C(F)(F)F)c1ccccc1 [Compound 2-3]	no inhibition at 90 μM		>709	127	
O=C(NC(c1ccc(Cl)cc1)C1CC1)c1ccccc1C(F)(F)F (stereo not drawn) [Compound 2-4]	no inhibition at 90 μM		>1280	70.5	
Cc1cc(CNC(=O)c2ccccc2C(F)(F)F)ccc1-c1ccc(OC(F)(F)F)cc1 [Compound 2-5]			>2350	3.83	Porcine mitochondria inhibition at 9 μM [1, 4]: no inhibition at 9 μM
O=C(NCc1ccc(Cl)cc1Cl)c1ccccc1C(F)(F)F [Compound 2-6]	10% at 90 μM		>3180	28.3	Percentage of migration inhibition (grade) (Haemonchus contortus; 0.1 ppm): C (10 to 39%); Percentage of migration inhibition (grade) (Haemonchus contortus; 1 ppm): C (10 to 39%); Percentage of migration inhibition (grade) (Haemonchus contortus; 10 ppm): C (10 to 39%)
CC(NC(=O)c1ccccc1C(F)(F)F)c1ccc(Cl)cc1Cl (stereo not drawn) [Compound 2-7]	no inhibition at 90 μM		>6430	14	
CC(NC(=O)c1ccccc1C(F)(F)F)c1ccc(Cl)cc1 (stereo not drawn) [Compound 2-8]	no inhibition at 90 μM		>2360	38.2	
O=C(NCCc1ncc(C(F)(F)F)cc1Cl)c1ccccc1C(F)(F)F [Compound 3-7]		1.6	56250		Percentage of migration inhibition (grade) (Haemonchus contortus; 0.1 ppm): C (10 to 39%); Percentage of migration inhibition (grade) (Haemonchus contortus; 1 ppm): C (10 to 39%); Percentage of migration inhibition (grade) (Haemonchus contortus; 10 ppm): C (10 to 39%); Percentage of migration inhibition (grade) (Haemonchus contortus; 100 ppm): B (40 to 69%); IC50 [1]: 90000 nM
O=C(NCCOc1ccc(Cl)cc1Cl)c1ccccc1C(F)(F)F [Compound 4-1]		3.44			Percentage of migration inhibition (grade) (Haemonchus contortus; 0.1 ppm): C (10 to 39%); Percentage of migration inhibition (grade) (Haemonchus contortus; 1 ppm): C (10 to 39%); Percentage of migration inhibition (grade) (Haemonchus contortus; 10 ppm): C (10 to 39%)
CC(COc1ccc(Cl)cc1Cl)NC(=O)c1ccccc1C(F)(F)F (stereo not drawn) [Compound 4-2]		5.15			
Cc1ccc(OCCNC(=O)c2ccccc2C(F)(F)F)c(C)c1 [Compound 4-3]		1.98			
O=C(NCCCOc1ccc(Cl)cc1Cl)c1ccccc1C(F)(F)F [Compound 4-4]	16% at 90 μM		>10770	8.36	
Cc1ccc(SCCCNC(=O)c2ccccc2C(F)(F)F)c(C)c1 [Compound 4-5]	11% at 90 μM		>14830	6.07	
O=C(NCCCSc1ccc(Cl)cc1Cl)c1ccccc1C(F)(F)F [Compound 4-6]			>1079	8.34	Porcine mitochondria inhibition at 9 μM [1, 4]: no inhibition at 9 μM
O=C(NCCCc1ccc(Cl)cc1Cl)c1ccccc1C(F)(F)F [Compound 4-7]		1.78	57870		Percentage of migration inhibition (grade) (Haemonchus contortus; 0.1 ppm): C (10 to 39%); Percentage of migration inhibition (grade) (Haemonchus contortus; 1 ppm): C (10 to 39%); Percentage of migration inhibition (grade) (Haemonchus contortus; 10 ppm): C (10 to 39%); Percentage of migration inhibition (grade) (Haemonchus contortus; 100 ppm): B (40 to 69%); IC50 [1, 5]: 103000 nM
CC(CCc1ccc(Cl)cc1Cl)NC(=O)c1ccccc1C(F)(F)F (stereo not drawn) [Compound 4-8]		2.61	>3448		inhibition at 9 µM [1, 4]: 5%
